Experimental data: ChEMBL document CHEMBL1137288, “Antiprotozoal activities of new bis-chlorophenyl derivatives of bicyclic octanes and aza-nonanes” (Bioorg Med Chem Lett, 2006)

Legend:
[1] = system: L6; assay: Cytotoxicity against L6 cells; type: cell-based; settings: Rattus norvegicus
[2] = Selectivity index, IC50 for L6 cells/ IC50 for Trypanosoma brucei rhodesience; type: functional
[3] = system: Trypanosoma brucei rhodesiense; assay: Antiprotozoal activity against Trypanosoma brucei rhodesiense STIB900; type: functional, organism-based
[4] = Selectivity index, IC50 for L6 cells/IC50 for Plasmodium falciparum K1; type: functional
[5] = system: Plasmodium falciparum; assay: Antiprotozoal activity against chloroquine-, pyrimethamine-resistant Plasmodium falciparum K1; type: functional, organism-based
[6] = system: Trypanosoma brucei brucei; assay: Survival of NMRI mouse infected with Trypanosoma brucei brucei at 50 mg/kg, ip; type: functional; settings: route intraperitoneal
[7] = system: Trypanosoma brucei brucei; assay: Survival of NMRI mouse infected with Trypanosoma brucei brucei at 0.5 mg/kg, ip; type: functional; settings: route intraperitoneal

Structure (SMILES)	IC50 [1] [µM]	Ratio IC50 [2]	IC50 [3] [µM]	Ratio IC50 [4]	IC50 [5] [µM]	Mean survival days [6] [days]	Mean survival days [7] [days]
O=C1CC2(N3CCCCC3)CC(c3ccccc3)C1C(c1ccccc1)C2 (centres undefined)	46.9	5.78	8.12	11.88	3.95		
Clc1ccc(C2CC3(N4CCCCC4)CCNC2C(c2ccc(Cl)cc2)C3)cc1 (centres undefined)	8.1	124.6	0.065	17.61	0.46	10.25	
COc1ccc(C2CC3(N4CCCCC4)CC(=O)C2C(c2ccc(OC)cc2)C3)cc1 (centres undefined)			10		4.36		
OC1CC2(N3CCCC3)CC(c3ccc(Cl)cc3)C1C(c1ccc(Cl)cc1)C2 (centres undefined)	3.59	9.7	0.37	6.77	0.53		
CN(C)C12CCNC(C(c3ccccc3)C1)C(c1ccccc1)C2 (centres undefined)		181.3		388.6			
O/N=C1\CC2(N3CCCC3)CC(c3ccc(Cl)cc3)C1C(c1ccc(Cl)cc1)C2 (centres undefined)	12.7	7.49	1.69	24.82	0.51		
COc1ccc(C2CC3(N(C)C)CC(=O)C2C(c2ccc(OC)cc2)C3)cc1 (centres undefined)	52.4	10.47	5.01	9.66	5.43		
OC1CC2(N3CCCC3)CC(c3ccccc3)C1C(c1ccccc1)C2 (centres undefined)	26.8	6.28	4.26	11.2	2.39		
O/N=C1/CC2(N3CCCC3)CC(c3ccc(Cl)cc3)C1C(c1ccc(Cl)cc1)C2 (centres undefined)	5.81	3.85	1.51	27.26	0.19		
OC1CC2(N3CCCCC3)CC(c3ccc(Cl)cc3)C1C(c1ccc(Cl)cc1)C2 (centres undefined)	11.6	26.34	0.44	31.32	0.37		
CN(C)C12CC(=O)NC(C(c3ccccc3)C1)C(c1ccccc1)C2 (centres undefined)	> 269	7.09	38	192.2	1.4		
CN(C)C12C/C(=N\O)C(C(c3ccccc3)C1)C(c1ccccc1)C2 (centres undefined)	150	19.61	7.67	119.4	1.26		
COc1ccc(C2CC3(N4CCCCC4)CC(O)C2C(c2ccc(OC)cc2)C3)cc1 (centres undefined)	44.6	3.13	14.2	8.95	4.98		
CN(C)C12CC(O)C(C(c3ccccc3)C1)C(c1ccccc1)C2 (centres undefined)	132	44.91	2.95	8.52	> 15.6		
COc1ccc(C2CC3(N4CCCC4)CC(=O)C2C(c2ccc(OC)cc2)C3)cc1 (centres undefined)	41.9	11.34	3.7	12.44	3.37		
CN(C)C12C/C(=N\O)C(C(c3ccc(Cl)cc3)C1)C(c1ccc(Cl)cc1)C2 (centres undefined)	7.82	5.21	1.5	7.82	1		
CN(C)C12CC(=O)C(C(c3ccccc3)C1)C(c1ccccc1)C2 (centres undefined)	24.6	2.46	9.99	2.32	> 10.6		
c1ccc(C2CC3(N4CCCC4)CCNC2C(c2ccccc2)C3)cc1 (centres undefined)		103.8		215			

Structure (SMILES)	IC50 [1] [µM]	Ratio IC50 [2]	IC50 [3] [µM]	Ratio IC50 [4]	IC50 [5] [µM]	Mean survival days [6] [days]	Mean survival days [7] [days]
O=C1CC2(N3CCCC3)CC(c3ccccc3)C(N1)C(c1ccccc1)C2 (centres undefined)	> 250	6.58	37.9	28.43	8.76		
O/N=C1\CC2(N3CCCC3)CC(c3ccccc3)C1C(c1ccccc1)C2 (centres undefined)	13.5	7.31	1.84	168.1	0.08		
OC1CC2(N3CCCCC3)CC(c3ccccc3)C1C(c1ccccc1)C2 (centres undefined)	37.3	6.99	5.34	44.45	0.84		
Clc1ccc(C2CC3(N4CCCC4)CCNC2C(c2ccc(Cl)cc2)C3)cc1 (centres undefined)	10.1	152.4	0.066	40.24	0.25	5.75	
O=C1CC2(N3CCCC3)CC(c3ccccc3)C1C(c1ccccc1)C2 (centres undefined)	26.4	3.29	8.03	22.22	1.19		
CN(C)C12CC(O)C(C(c3ccc(Cl)cc3)C1)C(c1ccc(Cl)cc1)C2 (centres undefined)	8.77	27.41	0.32	8.95	0.98		
O=C1CC2(N3CCCCC3)CC(c3ccccc3)C(N1)C(c1ccccc1)C2 (centres undefined)	234	6.38	36.6	17.97	13		
O/N=C1\CC2(N3CCCCC3)CC(c3ccc(Cl)cc3)C1C(c1ccc(Cl)cc1)C2 (centres undefined)	8.75	2.62	3.34	17.5	0.5		
O/N=C1\CC2(N3CCCCC3)CC(c3ccccc3)C1C(c1ccccc1)C2 (centres undefined)	24.2	6.6	3.66	161.1	0.15		
CN(C)C12CCNC(C(c3ccc(Cl)cc3)C1)C(c1ccc(Cl)cc1)C2 (centres undefined)	8.74	143.3	0.061	21.32	0.41	9	
c1ccc(C2CC3(N4CCCCC4)CCNC2C(c2ccccc2)C3)cc1 (centres undefined)		13.66		140.22			
COc1ccc(C2CC3(N4CCCC4)CC(O)C2C(c2ccc(OC)cc2)C3)cc1 (centres undefined)	17.9	2.35	7.61	6.58	2.72		
COc1ccc(C2CC3(N(C)C)CC(O)C2C(c2ccc(OC)cc2)C3)cc1 (centres undefined)	63.4	29.5	2.15	11.53	5.5		
C[C@@H]1CC[C@H]2[C@@H](C)C(=O)O[C@@H]3O[C@@]4(C)CC[C@@H]1[C@]32OO4 [ARTEMISININ]				70390	0.0064		
OC(c1cc(C(F)(F)F)nc2c(C(F)(F)F)cccc12)C1CCCCN1 (centres undefined) [MEFLOQUINE]	11.4						
Nc1nc(N)nc(Nc2ccc([As]3SCC(CO)S3)cc2)n1 (centres undefined) [MELARSOPROL]		1995					42.5
Cc1ccc(C(=O)Nc2ccc(S(=O)(=O)O)c3cc(S(=O)(=O)O)cc(S(=O)(=O)O)c23)cc1NC(=O)c1cccc(NC(=O)Nc2cccc(C(=O)Nc3cc(C(=O)Nc4ccc(S(=O)(=O)O)c5cc(S(=O)(=O)O)cc(S(=O)(=O)O)c45)ccc3C)c2)c1 [SURAMIN]	4720	629933	0.0075				
